Measurements from patent US20090220448A1, “HAIR CARE COMPOSITIONS AND METHODS FOR INCREASING HAIR DIAMETER AND FOR IMMEDIATE FULLER/THICKER HAIR APPEARANCE” (priority 2008, published 2009).

Test system: Primary human dermal papilla cells
Assay: Synergy study: survival of metabolically stressed dermal papilla cells (ATP, Cell Titer Glo)
Type: cell-based
Settings: 0.05%, 48 hours metabolic stress in reduced media, control 100% water
Method: The dermal papilla, in normal human hair, is the control center for hair diameter. Increasing survival of dermal papilla cells in situ leads to increased hair diameter. Accordingly, an increase in survival of dermal papilla cells correlates with an increase in hair diameter.
Primary human dermal papilla cells were metabolically stressed for 48 hours in reduced standard tissue culture media. During this period of stress the cells were treated with the mixtures or individual ingredients below. After 48 hr the metabolic activity of the cells was measured by the amount of ATP using the Cell Titer Glo™ kit (Promega).

Cn1c(=O)c2c(ncn2C)n(C)c1=O [Caffeine]
Survival rate: % Change from Control: +41%
